Read-outs that look alike come from different tables or passages of the source.
Legend:
[1] = biological target: T1, Type I 5α-Reductase from Human Scalp (Homo sapiens, UniProt P18405); experiment: Human Type I 5α-reductase assay (conversion of [3H]-testosterone to 5α-reduced metabolites); assay type: biochemical
T1 construct: Scalp punch biopsies from graft recipient sites were obtained from human hair transplant procedures; from tissue; host or cells: human scalp punch biopsies (hair transplant graft recipient sites), homogenate, 100,000×g pellet
T1 sequence (P18405 1-259): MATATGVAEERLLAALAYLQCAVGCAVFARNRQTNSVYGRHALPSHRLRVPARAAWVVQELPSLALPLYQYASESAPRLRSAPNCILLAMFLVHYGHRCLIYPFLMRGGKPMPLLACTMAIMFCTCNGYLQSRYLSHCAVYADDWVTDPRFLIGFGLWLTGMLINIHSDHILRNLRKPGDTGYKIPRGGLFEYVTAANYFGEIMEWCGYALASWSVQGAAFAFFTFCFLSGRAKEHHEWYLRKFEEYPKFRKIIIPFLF

[2] = biological target: T2, Type II 5α-Reductase from Human Prostate (Homo sapiens, UniProt P31213); experiment: Human Type II 5α-reductase assay (conversion of [3H]-testosterone to 5α-reduced metabolites); assay type: biochemical
T2 construct: The same procedure as above was used for preparations using tissue from prostate surgery; from tissue; host or cells: human prostate tissue from surgery, homogenate, 100,000×g pellet
T2 sequence (P31213 1-254): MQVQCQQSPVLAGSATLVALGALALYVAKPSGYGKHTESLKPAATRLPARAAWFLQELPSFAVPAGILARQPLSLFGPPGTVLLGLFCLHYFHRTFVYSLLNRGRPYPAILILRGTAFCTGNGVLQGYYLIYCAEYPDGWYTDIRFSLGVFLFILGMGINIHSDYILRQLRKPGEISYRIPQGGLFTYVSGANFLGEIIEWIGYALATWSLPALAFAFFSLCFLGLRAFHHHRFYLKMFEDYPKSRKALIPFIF

[3] = pH 7.5, 0.3 μM, 50 nM [3H]-testosterone, pH 7.5, 25°, 180 min, compared to control reaction mixtures, read-out: percent inhibition of Type I AR
[4] = pH 5.5, 0.3 μM, sodium acetate pH 5.5, 25°, 30 min, compared to control reaction mixtures, read-out: percent inhibition of Type II AR

Compound | inhibition at 0.3 µM [1, 3] [%] | inhibition at 0.3 µM [2, 4] [%] | inhibition at 0.3 µM ([1]; pH 7.5, read-out: percent inhibition of Type I AR) [%] | inhibition at 0.3 µM ([2]; pH 5.5, read-out: percent inhibition of Type II AR) [%]
CN1C(=O)CC[C@]2(C)c3ccc(-c4ccc(COc5ccc(F)cc5)s4)cc3CC[C@@H]12 [Example 129, (+)-(4aR)-(10bR)-4-methyl-8-(2-[5-(4-fluorophenoxy-methyl)thienyl])-10b-methyl-1,2,3,4,4a,5,6,10b-octahydrobenzo[f]-quinolin-3-one] | 91 | 36 | – | –
CN1C(=O)CC[C@]2(C)c3ccc(-c4cc(F)cc(F)c4F)cc3CC[C@@H]12 [Example 130, (+)-(4aR)-(10bR)-4-methyl-8-(2,3,5-trifluorophenyl)-10b-methyl-1,2,3,4,4a,5,6,10b-octahydrobenzo[f]quinolin-3-one] | 83 | 29 | – | –
CN1C(=O)CC[C@]2(C)c3ccc(-c4ccc5c(c4)Cc4ccccc4-5)cc3CC[C@@H]12 [Example 131, (+)-(4aR)-(10bR)-4-methyl-8-(2-fluorenyl)-10b-methyl-1,2,3,4,4a,5,6,10b-octahydrobenzo[f]quinolin-3-one] | 57 | 44 | – | –
CN1C(=O)CC[C@]2(C)c3ccc(-c4cc(Cl)sc4Cl)cc3CC[C@@H]12 [Example 132, (+)-(4aR)-(10bR)-4-methyl-8-(3-[2,5-dichlororo]thienyl)-10b-methyl-1,2,3,4,4a,5,6,10b-octahydrobenzo[f]quinolin-3-one] | 87 | 24 | – | –
CN1C(=O)CC[C@]2(C)c3ccc(-c4ccc([N+](=O)[O-])cc4C(F)(F)F)cc3CC[C@@H]12 [Example 133, (+)-(4aR)-(10bR)-4-methyl-8-(4-nitro-2-trifluoromethylphenyl)-10b-methyl-1,2,3,4,4a,5,6,10b-octahydrobenzo[f]-quinolin-3-one] | – | – | 77 | 34
CN1C(=O)CC[C@]2(C)c3ccc(-c4ccc(C(F)(F)F)cc4[N+](=O)[O-])cc3CC[C@@H]12 [Example 134, (+)-(4aR)-(10bR)-4-methyl-8-(2-nitro-4-trifluoromethylphenyl)-10b-methyl-1,2,3,4,4a,5,6,10b-octahydrobenzo[f]-quinolin-3-one] | 97 | 46 | – | –
CN1C(=O)CC[C@]2(C)c3ccc(-c4c(F)c(F)c(Cl)c(F)c4F)cc3CC[C@@H]12 [Example 135, (+)-(4aR)-(10bR)-4-methyl-8-(4-chloro-2,3,5,6-tetrafluorophenyl)-10b-methyl-1,2,3,4,4a,5,6,10b-octahydrobenzo[f]-quinolin-3-one] | 92 | 31 | – | –
CN1C(=O)CC[C@]2(C)c3ccc(SCc4ccccc4)cc3CC[C@@H]12 [Example 136, (4aR)-(10bR)-8-benzylthio-4,10b-dimethyl-1,2,3,4,4a,5,6, 10b-octahydrobenzo[f]quinolin-3-one] | 100 | 32 | – | –
CN1C(=O)CC[C@]2(C)c3ccc(CSc4ccccc4)cc3CC[C@@H]12 [Example 137, (4aR)-(10bR)-8-phenylthiomethyl-4,10b-dimethyl-1,2,3,4,4a,5,6,10b-octahydrobenzo[f]quinolin-3-one] | 90 | 37 | – | –
CN1C(=O)CC[C@]2(C)c3ccc(CSc4nc5ccccc5s4)cc3CC[C@@H]12 [Example 138, (4aR)-(10bR)-8-(2-benzothiazole)thiomethyl-4,10b-dimethyl-1,2,3,4,4a,5,6,10b-octahydrobenzo[f]quinolin-3-one] | 88 | 26 | – | –
CN1C(=O)CC[C@]2(C)c3ccc(C(c4ccccc4)c4ccccc4)cc3CC[C@@H]12 [Example 139, (4aR)-(10bR)-8-diphenylmethyl-4,10b-dimethyl-1,2,3,4,-4a,5,6,10b-octahydrobenzo[f]quinolin-3-one] | 30 | 59 | – | –
CN1C(=O)CC[C@]2(C)c3ccc(C(=O)Nc4ccccc4)cc3CC[C@@H]12 [Example 143, (+)-(4aR)-(10bR)-4-methyl-8-(phenylcarboxamido)-10b-methyl-1,2,3,4,4a,5,6,10b-octahydrobenzo[f]quinolin-3-one] | 63 | 18 | – | –
CN1C(=O)CC[C@]2(C)c3ccc(C(=O)OCc4ccccc4)cc3CC[C@@H]12 [Example 144, (+)-(4aR)-(10bR)-4-methyl-8-benzyloxycarbonyl-10b-methyl-1,2,3,4,4a,5,6,10b-octahydrobenzo[f]quinolin-3-one] | 90 | 40 | – | –
CN1C(=O)CC[C@]2(C)c3ccc(C(=O)Oc4ccccc4)cc3CC[C@@H]12 [Example 145, (+)-(4aR)-(10bR)-4-methyl-8-phenoxycarbonyl-10b-methyl-1 2,3,4,4a,5,6,10b-octahydrobenzo[f]quinolin-3-one] | 85 | 41 | – | –
CN1C(=O)CC[C@]2(C)c3ccc(C(=O)NCc4ccccc4)cc3CC[C@@H]12 [Example 146, (+)-(4aR)-(10bR)-4-methyl-8-(benzylcarboxamido)-10b-methyl-1,2,3,4,4a,5,6,10b-octahydrobenzo[f]quinolin-3-one] | 13 | 32 | – | –
CN1C(=O)CC[C@]2(C)c3ccc(C(=O)OC(c4ccccc4)c4ccccc4)cc3CC[C@@H]12 [Example 147, (4aR)-(10bR)-4,10b-dimethyl-8-diphenylmethoxycarbonyl-1,2,3,4,4a,5,6,10b-octahydrobenzo[f]quinolin-3-one] | 35 | 83 | – | –
CN1C(=O)CC[C@]2(C)c3ccc(C(=O)NC(c4ccccc4)c4ccccc4)cc3CC[C@@H]12 [Example 148, (4aR)-(10bR)-4,10b-dimethyl-8-diphenylmethylcarboxamido-1,2,3,4,4a,5,6,10b-octahydrobenzo[f]quinolin-3-one] | 2 | 12 | – | –
CN1C(=O)CC[C@]2(C)c3ccc(Sc4nccs4)cc3CC[C@@H]12 [Example 149, (+)-(4aR)-(10bR)-4-methyl-8-(2-thiazoylthio)-10b-methyl-1,2,3,4,4a,5,6,10b-octahydrobenzo[f]quinolin-3-one] | 58 | 33 | – | –
CN1C(=O)CC[C@]2(C)c3ccc(Sc4nc5ccccc5o4)cc3CC[C@@H]12 [Example 150, (+)-(4aR)-(10bR)-4-methyl-8-(2-benzoxazolylthio)-10b-methyl-1,2,3,4,4a,5,6,10b-octahydrobenzo[f]quinolin-3-one] | 67 | 69 | – | –
CN1C(=O)CC[C@]2(C)c3ccc(Sc4ncccn4)cc3CC[C@@H]12 [Example 151, (+)-(4aR)-(10bR)-4-methyl-8-(2-pyrimidinylthio)-10b-methyl-1,2,3,4,4a,5,6,10b-octahydrobenzo[f]quinolin-3-one] | 31 | 28 | – | –
CN1C(=O)CC[C@]2(C)c3ccc(Sc4cnccn4)cc3CC[C@@H]12 [Example 152, (+)-(4aR)-(10bR)-4-methyl-8-(2-pyrazinylthio)-10b-methyl-1,2,3,4,4a,5,6,10b-octahydrobenzo[f]quinolin-3-one] | 47 | 10 | – | –
CN1C(=O)CC[C@]2(C)c3ccc(Sc4cnc5ccccc5n4)cc3CC[C@@H]12 [Example 153, (+)-(4aR)-(10bR)-4-methyl-8-(2-quinoxalinylthio)-10b-methyl-1,2,3,4,4a,5,6,10b-octahydrobenzo[f]quinolin-3-one] | 49 | 71 | – | –
